“Also recorded” adds a separate entry of the source.
Tests used:
bleeding time = assay: Bleeding time test, forearm puncture with #11 scalpel blade (Experiment 4); format: in vivo, human
Excerpt: The bleeding time test measures the function of a number of coagulation pathway parameters, including platelet function, extrinsic coagulation pathway and intrinsic coagulation pathway. Here, in order to better understand the various coagulation pathways that might be impacted by gallium nitrate, a bleeding function experiment was done to see if the gallium nitrate effect worked for patients (e.g. Warfarin or Coumadin™ patients) with a suppressed extrinsic coagulation pathway.
In this experiment, a first subject (Subject 1) was treated with Coumadin™ (Warfarin) to achieve a therapeutic dose with an International Normalized Ratio (INR) of 2.5.
Subject 1: To induce bleeding, the first INR 2.5 subject's mid forearm was punctured with a #11 scalpel blade to a depth of 4 mm. This produced prompt flow of blood in the form of a steady slow blood stream down the subject's forearm. This blood flow was gently wiped with gauze every 30 seconds without applying pressure. Under these control (no gallium nitrate) conditions, the bleeding stopped at 122 seconds.
To investigate the effect of gallium nitrate, a second puncture was then made to the arm of the INR 2.5 subject following the same methods as for the first puncture. However in this portion of the experiment, at 5 seconds after puncture, once blood flow had commenced, a gallium nitrate (14%) solution was applied using a soaked cotton-ball. In contrast to the previous no-gallium control, in this gallium nitrate application experiment, blood flow ceased after only 35 seconds. A small pool of blood stayed about incision site. Thus for an INR 2.5 patient, gallium nitrate reduced bleeding time from a control of 122 seconds to a value of only 35 seconds, which is a very substantial decrease.
Subject 2: A mid forearm puncture was made following the same methods as described above. This first puncture was gently wiped with gauze every 30 seconds without applying pressure. In this no gallium nitrate control condition, bleeding stopped at 268 seconds
To investigate the effect of gallium nitrate, a second puncture was then made following the same methods as for the first puncture. At 5 seconds after puncture, once blood flow had commenced, a gallium nitrate (14%) solution was applied using a soaked cotton-ball. By 77 seconds the flow had ceased and a visible clot had started to form.

open wound = assay: Topical application of aqueous gallium nitrate to accidental open bleeding wounds (Experiments 1-3); format: in vivo, human
Excerpt: Unless otherwise specified, all experiments below used an aqueous solution of unbuffered Ga(NO3)3, dissolved in water in the 5% to 15% weight/volume concentration range, specifically as stated. Note that none of these formulations contained citrate.
A first human subject sustained an accidental 1-inch long gash to the index finger, deep enough to extend below the epidermis, but stopping short of the bone. The wound bled profusely and hurt intensely. Subject immediately inserted the finger into a solution of concentrated (non-medical) 14% aqueous gallium nitrate. […] Subject kept the finger in the 14% aqueous gallium nitrate solution for 10 minutes. […] A regular bandage was then applied. Although a wound of this depth would normally require stitches, by the time further medical treatment was sought, stitches were no longer deemed necessary.
A different (second) human subject sustained an accidental 1-inch wide gash to the chin which again penetrated the epidermis, stopped short of the bone, and which bled very profusely. The wound was treated by liberally applying the same type of 14% gallium nitrate solution used in Experiment 1.
A third human subject sustained an accidental 2-inch wide and quite deep gash (penetrating the epidermis, stopping short of the bone) to the top of the forehead, accompanied by profuse bleeding. A less concentrated (7% aqueous gallium nitrate) topical solution was then applied.

O=[N+]([O-])[O-].O=[N+]([O-])[O-].O=[N+]([O-])[O-].[Ga+3] [gallium nitrate]
visible clot formation (bleeding time; Coumadin treated subject, 14% solution): did not form a visible clot | bleeding time (blood flow ceased) (bleeding time; Subject 1, Coumadin (Warfarin) treated, INR 2.5, 14% solution applied with soaked cotton-ball 5 seconds after puncture): 35 s | bleeding time (flow ceased) (bleeding time; Subject 2, non-Coumadin treated, 14% solution applied with soaked cotton-ball 5 seconds after puncture): 77 s | reduction of bleeding time compared to no-gallium nitrate control (bleeding time; both the Warfarin/Coumadin treated and the non-treated subject, 14% solution): approximately 75% | visible clot formation (bleeding time; non-Coumadin treated subject, 14% solution): formed a very visible brown clot | wound healing (open wound; Experiment 1: 14% aqueous gallium nitrate, finger gash, regular bandage afterwards): healed completely within a matter of days | pain (open wound; Experiment 1: 14% aqueous gallium nitrate, finger kept in solution for 10 minutes): near immediate reduction in pain; also recorded: no pain was felt | bleeding stopped (open wound; Experiment 1: first human subject, 1-inch gash to index finger, finger inserted into 14% aqueous gallium nitrate, no citrate): stopped within a few seconds | resulting clot (open wound; Experiment 2: 14% gallium nitrate solution, chin gash, examined by treating physician shortly thereafter): unusual strength | bleeding stopped (open wound; Experiment 2: second human subject, 1-inch gash to chin, 14% gallium nitrate solution liberally applied): rapidly stopped bleeding | bleeding stopped (open wound; Experiment 3: third human subject, 2-inch deep gash to forehead, 7% aqueous gallium nitrate topical): stopped bleeding unusually quickly | clot formation (open wound; summary of the accidental event: aqueous 14% gallium nitrate on a large open wound immediately after wound formation): unexpectedly rapid clot formation

From patent publication US8652509B2, “Method of wound hemostasis using liquid gallium nitrate” (priority 2009, dated 2014)
